For one assay, the target named is h5HT2A (Homo sapiens (Human), UniProt P28223). Description: h5HT2A binding.
The target of the next assay is r5-HT7 receptor (Rattus norvegicus (Rat), UniProt P32305). Briefly: HitHunter cAMP assay, antagonist testing against 100 nM 5-CT. In kind it is cell-based. The settings on record: antagonist testing, 100 nM 5-CT challenge, HEK-293 r5-HT7; read-out: R5HT7 cAMP pKb (converted). On the procedure:
Receptor binding was performed using membrane fractions prepared from the HEK-293 cell line recombinantly expressing rat 5-HT7 receptors (NCBI accession NM_022938). Compound affinity for the rat 5-HT7 receptor subtype was evaluated by competitive radioligand binding assays using 5-carboxamido[^3H]tryptamine ([^3H]5-CT) (Amersham Biosciences, cat. 90000403) detection. HitHunter™ cAMP assays are in-vitro based competitive immunoassays. The assay was performed on the HEK-293 cell line stably transfected with r5-HT7 receptor. Cells were pre-incubated with test compounds for 10 minutes. For antagonist testing, the cells were then challenged with 100 nM 5-CT for 20 minutes. Cells were then lysed and cAMP measured according to manufacturers protocol (Amersham, cat. NET791250UC) or [^3H]mesulergine (Amersham, cat. TRK1041). The assay was performed on membranes prepared from HEK-293 cells stably transfected with h5-HT6. Following centrifugation, membranes were resuspended and incubated for 60 min at room temperature with 1.7 nM [^3H]LSD in the presence of increasing concentration of test compounds. Nonspecific binding was defined in the presence of 10 μM clozapine (Tocris, cat. TRK1068). Homogenized HEK-293 membranes expressing the human SERT were incubated in 50 mM Tris-HCl (pH 7.5), 120 mM NaCl, 5 mM KCl with [^3H]-citalopram (3 nM) with or without test compounds. Nonspecific binding was determined in the presence of 10 μM fluoxetine. Radioactivity readouts and Ki values were performed as previously described for r5-HT7. […] Compounds were assayed in their free form or as salts, as indicated in the Examples section above.

Another assay deals with h5HT2B (Homo sapiens (Human), UniProt P41595). Description: h5HT2B binding.
A further assay concerns the target rat 5-HT7 receptor (Rattus norvegicus (Rat), UniProt P32305). Description: r5-HT7 binding assay, competitive radioligand binding with [3H]5-CT. The method in brief: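 For h5-HT6, stably transfected HEK-293 membranes were exposed to 1.7 nM [3H]LSD plus increasing compound for 60 min at room temperature, with 10 μM clozapine for nonspecific binding. The r5-HT7 assay used [3H]5-CT competition on recombinant HEK-293 membranes, Ki derived from radioactivity counts.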

A further assay deals with h5HT2C (Homo sapiens (Human), UniProt P28335). Briefly: h5HT2C binding.
In another assay the target is human SERT (Homo sapiens (Human), UniProt P31645). Description: human SERT binding assay with [3H]-citalopram on HEK-293 membranes. The settings on record: read-out: hSERT binding Ki.
Where [1] appears, read: rat 5-HT7 receptor, HEK-293 membranes.

Here are results for 23 compounds from patent publication US9981909B2 (Janssen Pharmaceutica NV, priority 2008, dated 2018).

By Ki is commonly meant the equilibrium dissociation constant of an inhibitor or competing ligand from its target.

Sequence of h5HT2C (P28335 33-458): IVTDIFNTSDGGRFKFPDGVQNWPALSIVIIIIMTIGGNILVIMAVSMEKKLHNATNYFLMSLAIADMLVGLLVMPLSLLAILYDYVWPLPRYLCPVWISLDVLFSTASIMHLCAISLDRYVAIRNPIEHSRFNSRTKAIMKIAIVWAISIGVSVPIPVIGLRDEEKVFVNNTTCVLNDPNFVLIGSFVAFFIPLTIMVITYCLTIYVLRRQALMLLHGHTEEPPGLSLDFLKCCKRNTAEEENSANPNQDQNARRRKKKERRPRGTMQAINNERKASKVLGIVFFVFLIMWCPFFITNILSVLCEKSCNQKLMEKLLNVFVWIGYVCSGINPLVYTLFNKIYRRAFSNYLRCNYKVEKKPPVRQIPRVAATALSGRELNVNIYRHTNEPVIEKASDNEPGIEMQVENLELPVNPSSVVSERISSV
Sequence of h5HT2B (P41595 whole entry): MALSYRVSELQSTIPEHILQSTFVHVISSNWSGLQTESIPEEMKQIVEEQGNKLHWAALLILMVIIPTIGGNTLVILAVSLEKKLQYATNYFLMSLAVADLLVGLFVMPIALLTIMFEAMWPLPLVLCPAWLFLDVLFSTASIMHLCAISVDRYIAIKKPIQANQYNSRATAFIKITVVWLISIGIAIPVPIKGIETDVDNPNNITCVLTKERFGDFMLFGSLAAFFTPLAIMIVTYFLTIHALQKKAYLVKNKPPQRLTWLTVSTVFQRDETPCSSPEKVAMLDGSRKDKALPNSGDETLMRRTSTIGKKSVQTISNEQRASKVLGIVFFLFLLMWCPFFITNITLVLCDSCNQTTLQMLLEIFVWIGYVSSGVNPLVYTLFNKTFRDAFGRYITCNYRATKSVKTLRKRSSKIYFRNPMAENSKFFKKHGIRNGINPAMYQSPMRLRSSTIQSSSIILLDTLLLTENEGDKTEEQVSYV
Sequence of h5HT2A (P28223 whole entry): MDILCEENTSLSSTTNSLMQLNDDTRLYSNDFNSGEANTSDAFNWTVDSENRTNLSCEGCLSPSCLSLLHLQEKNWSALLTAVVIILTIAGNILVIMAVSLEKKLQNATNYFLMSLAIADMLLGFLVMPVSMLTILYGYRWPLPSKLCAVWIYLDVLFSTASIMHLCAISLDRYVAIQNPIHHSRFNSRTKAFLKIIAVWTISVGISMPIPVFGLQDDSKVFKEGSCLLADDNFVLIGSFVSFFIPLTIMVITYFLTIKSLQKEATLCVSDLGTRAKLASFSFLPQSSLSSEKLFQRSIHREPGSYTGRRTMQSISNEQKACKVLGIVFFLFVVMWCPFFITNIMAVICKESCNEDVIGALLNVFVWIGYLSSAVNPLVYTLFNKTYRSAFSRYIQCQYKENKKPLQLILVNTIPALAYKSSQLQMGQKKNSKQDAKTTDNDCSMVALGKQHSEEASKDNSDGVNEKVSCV
Sequence of r5-HT7 receptor (P32305 1-435): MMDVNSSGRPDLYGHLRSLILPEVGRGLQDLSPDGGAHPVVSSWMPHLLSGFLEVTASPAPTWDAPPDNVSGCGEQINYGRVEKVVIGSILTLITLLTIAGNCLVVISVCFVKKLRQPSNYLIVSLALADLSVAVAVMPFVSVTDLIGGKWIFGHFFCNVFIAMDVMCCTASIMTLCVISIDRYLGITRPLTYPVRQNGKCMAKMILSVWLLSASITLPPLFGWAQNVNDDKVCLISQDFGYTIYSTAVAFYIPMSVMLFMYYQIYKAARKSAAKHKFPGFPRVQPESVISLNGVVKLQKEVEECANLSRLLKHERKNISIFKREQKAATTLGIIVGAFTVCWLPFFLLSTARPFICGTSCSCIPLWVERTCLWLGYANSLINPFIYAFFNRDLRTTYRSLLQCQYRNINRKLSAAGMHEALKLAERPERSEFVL
Sequence of rat 5-HT7 receptor (P32305 1-435): as above
Sequence of human SERT (P31645 whole entry): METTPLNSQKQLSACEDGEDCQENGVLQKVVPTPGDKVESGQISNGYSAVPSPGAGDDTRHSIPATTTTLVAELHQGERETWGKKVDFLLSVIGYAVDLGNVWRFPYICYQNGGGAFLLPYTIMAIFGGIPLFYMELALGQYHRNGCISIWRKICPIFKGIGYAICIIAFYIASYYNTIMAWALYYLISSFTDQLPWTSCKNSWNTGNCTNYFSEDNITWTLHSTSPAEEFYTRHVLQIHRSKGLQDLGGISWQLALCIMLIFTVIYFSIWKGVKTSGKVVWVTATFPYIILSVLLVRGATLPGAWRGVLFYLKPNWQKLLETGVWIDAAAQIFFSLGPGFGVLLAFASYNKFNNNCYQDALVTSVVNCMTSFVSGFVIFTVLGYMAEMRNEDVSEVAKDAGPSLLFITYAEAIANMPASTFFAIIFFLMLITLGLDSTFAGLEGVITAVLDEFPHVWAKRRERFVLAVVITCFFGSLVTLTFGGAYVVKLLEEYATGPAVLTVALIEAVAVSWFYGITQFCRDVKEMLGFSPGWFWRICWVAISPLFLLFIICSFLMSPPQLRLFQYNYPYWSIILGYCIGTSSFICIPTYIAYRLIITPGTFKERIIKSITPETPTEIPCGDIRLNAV

For `Cc1ccc2c(c1)C(Oc1ccc(Cl)cc1OC1CNC1)CC2` (racemic) [Example 158, (±)-3-[5-Chloro-2-(6-methyl-indan-1-yloxy)-phenoxy]-azetidine], the Ki is 8 nM on h5HT2A; 36 nM on h5HT2B; 15 nM on rat 5-HT7 receptor (setting [1]); 146 nM at h5HT2C; 67 nM at human SERT. Further, on r5-HT7 receptor, the Kb is 10 nM.
Turning to `Clc1ccc(OC2CCc3ccc(Cl)cc32)c(OC2CNC2)c1` (racemic) [Example 159, (±)-3-[5-Chloro-2-(6-chloro-indan-1-yloxy)-phenoxy]-azetidine], the Ki amounted to 6 nM on h5HT2A; 41 nM at h5HT2B; 17 nM on rat 5-HT7 receptor (setting [1]); 196 nM at h5HT2C; 21 nM at human SERT. Further, at r5-HT7 receptor, the Kb was 7.94 nM.
Turning to `C[C@@H](Oc1ccc(C(F)(F)F)cc1OC1CNC1)c1cccc(C(F)(F)F)c1` (stereo in doubt) [Example 200, 3-[5-Trifluoromethyl-2-[1-(3-trifluoromethyl-phenyl)-ethoxy]-phenoxy]-azetidine], the inhibition constant (Ki) was found to be 605 nM on h5HT2A; 7570 nM on h5HT2B; 31 nM on rat 5-HT7 receptor (setting [1]); 5000 nM on h5HT2C; 224 nM on human SERT. Moreover, on r5-HT7 receptor, the Kb was 158 nM.
In the case of `Cc1nc(COc2ccc(Cl)cc2OC2CNC2)cs1` [Example 29, 4-[2-(Azetidin-3-yloxy)-4-chloro-phenoxymethyl]-2-methyl-thiazole], the Ki at h5HT2A was determined as 225 nM; at h5HT2B it was 529 nM; at rat 5-HT7 receptor (setting [1]), 83 nM; on h5HT2C, 1110 nM; at human SERT it was 27 nM. The Kb on r5-HT7 receptor is 126 nM.
As to `FC(F)(F)c1cccc(COc2ccc(Cl)cc2OC2CNC2)n1` [Example 79, 2-[2-(Azetidin-3-yloxy)-4-chloro-phenoxymethyl]-6-trifluoromethyl-pyridine], the Ki on h5HT2A came to 69 nM; at h5HT2B, 248 nM; on rat 5-HT7 receptor (setting [1]), 26 nM; on h5HT2C, 290 nM; at human SERT, 3 nM. Besides, the Kb at r5-HT7 receptor is 50.1 nM.
On to `FC(F)(F)c1ccnc(COc2ccc(Cl)cc2OC2CNC2)c1` [Example 81, 2-[2-(Azetidin-3-yloxy)-4-chloro-phenoxymethyl]-4-trifluoromethyl-pyridine], for which the Ki on h5HT2A was 76 nM; at h5HT2B it was 367 nM; on rat 5-HT7 receptor (setting [1]), 97 nM; on h5HT2C, 590 nM; on human SERT, 1170 nM.
As for `Clc1ccc(O[C@@H]2CCNC2)c(OCc2ccccc2)c1` [Example 90, (R)-3-(2-Benzyloxy-4-chloro-phenoxy)-pyrrolidine], the Ki at h5HT2A came out at 20 nM; on h5HT2B, 83 nM; on rat 5-HT7 receptor (setting [1]), 920 nM; on h5HT2C, 160 nM.
For `CN1CC[C@@H](Oc2ccc(Cl)cc2OCc2ccccc2)C1` [Example 91, (R)-3-(2-Benzyloxy-4-chloro-phenoxy)-1-methyl-pyrrolidine] the same measures were 5 nM, 50 nM, 500 nM and 120 nM.
For `Clc1cccc(COc2cc(Cl)ccc2O[C@@H]2CCNC2)c1` [Example 92, (R)-3-[4-Chloro-2-(3-chloro-benzyloxy)-phenoxy]-pyrrolidine] the same measures were 14 nM, 28 nM, 260 nM and 110 nM.
The matching figures for `CN1CC[C@@H](Oc2ccc(Cl)cc2OCc2cccc(Cl)c2)C1` [Example 93, (R)-3-[4-Chloro-2-(3-chloro-benzyloxy)-phenoxy]-1-methyl-pyrrolidine]: 3 nM, 13 nM, 140 nM and 51 nM.
With `Clc1cccc(COc2cc(Cl)ccc2O[C@H]2CCNC2)c1` [Example 94, (S)-3-[4-Chloro-2-(3-chloro-benzyloxy)-phenoxy]-pyrrolidine], the inhibition constant Ki is 32 nM at h5HT2A, 250 nM at h5HT2B, above 2500 nM on rat 5-HT7 receptor (setting [1]) and 69 nM on h5HT2C.
Take `Clc1ccc(OC2CCc3ccccc3C2)c(OC2CNC2)c1` (stereo not shown) [Example 164, 3-[5-Chloro-2-(1,2,3,4-tetrahydro-naphthalen-2-yloxy)-phenoxy]-azetidine]: the Ki turned out to be 24 nM on h5HT2A; 30 nM on h5HT2B; 33 nM at rat 5-HT7 receptor (setting [1]); 181 nM at h5HT2C; 8 nM at human SERT.
`COC(COc1ccc(Cl)cc1OC1CNC1)c1ccccc1` (stereo not shown) [Example 168, 3-[5-Chloro-2-(2-methoxy-2-phenyl-ethoxy)-phenoxy]-azetidine]: the Ki on h5HT2A is 8 nM; on h5HT2B, 21 nM; on rat 5-HT7 receptor (setting [1]), 130 nM; at h5HT2C, 48 nM.
In the case of `Clc1ccc(C2(COc3ccc(Cl)cc3OC3CNC3)CCC2)cc1` [Example 188, 3-[5-Chloro-2-[1-(4-chloro-phenyl)-cyclobutylmethoxy]-phenoxy]-azetidine], the inhibition constant Ki at h5HT2A is 8 nM; on h5HT2B it was 28 nM; at rat 5-HT7 receptor (setting [1]), 34 nM; on h5HT2C it was 143 nM; on human SERT, 65 nM.
For `COc1cccc(CCOc2ccc(Cl)cc2OC2CNC2)c1` [Example 190, 3-[5-Chloro-2-[2-(3-methoxy-phenyl)-ethoxy]-phenoxy]-azetidine] the same measures were 14 nM, 69 nM, 8 nM, 56 nM and 211 nM.
`Fc1cccc(CCOc2ccc(Cl)cc2OC2CNC2)c1` [Example 191, 3-[5-Chloro-2-[2-(3-fluoro-phenyl)-ethoxy]-phenoxy]-azetidine]: the Ki on h5HT2A stood at 8 nM; on h5HT2B, 11 nM; at rat 5-HT7 receptor (setting [1]) it was 8 nM; on h5HT2C, 53 nM; on human SERT, 7 nM.
As for `Clc1ccc(CCOc2ccc(Cl)cc2OC2CNC2)cc1` [Example 192, 3-[5-Chloro-2-[2-(4-chloro-phenyl)-ethoxy]-phenoxy]-azetidine], the inhibition constant Ki at h5HT2A is 9 nM; on h5HT2B it was 22 nM; at rat 5-HT7 receptor (setting [1]), 8 nM; on h5HT2C it was 140 nM; at human SERT it was 88 nM.
The matching figures for `Fc1ccc(CCOc2ccc(Cl)cc2OC2CNC2)cc1` [Example 193, 3-[5-Chloro-2-[2-(4-fluoro-phenyl)-ethoxy]-phenoxy]-azetidine]: 11 nM, 14 nM, 5 nM, 71 nM and 9 nM.
The matching figures for `COc1ccc(CCOc2ccc(Cl)cc2OC2CNC2)cc1` [Example 194, 3-[5-Chloro-2-[2-(4-methoxy-phenyl)-ethoxy]-phenoxy]-azetidine]: 4 nM, 195 nM, 4 nM, 81 nM and 141 nM.
Take `Clc1cccc(Oc2ccc(Br)cc2OC2CNC2)c1` [Example 252, 3-[5-Bromo-2-(3-chloro-phenoxy)-phenoxy]-azetidine]: the Kb at r5-HT7 receptor was 63.1 nM. The Ki on rat 5-HT7 receptor (rat 5-HT7, HEK-293 membranes) was 7 nM; at human SERT, 60 nM.
Turning to `Clc1ccc(Oc2ccc3ccccc3c2)c(OC2CNC2)c1` [Example 260, 3-[5-Chloro-2-(naphthalen-2-yloxy)-phenoxy]-azetidine], the Kb at r5-HT7 receptor is 1000 nM. Besides, the Ki was found to be 16 nM on rat 5-HT7 receptor (rat 5-HT7, HEK-293 membranes) and 2 nM on human SERT.
The matching figures for `O=C(c1ccc2ccccc2c1)c1ccc(Br)cc1OC1CNC1` [Example 287, [2-(Azetidin-3-yloxy)-4-bromo-phenyl]-naphthalen-2-yl-methanone]: 63.1 nM, 15 nM and 14 nM.
The matching figures for `O=C(c1ccc2c(c1)OCO2)c1ccc(Br)cc1OC1CNC1` [Example 289, [2-(Azetidin-3-yloxy)-4-bromo-phenyl]-benzo[1,3]dioxol-5-yl-methanone]: 39.8 nM, 34 nM and 437 nM.
